US20150125550A1, “APPLICATION OF 2,9-DI-SEC-BUTYL-1,10-PHENANTHROLINE AS A GLIOBLASTOMA TUMOR CHEMOTHERAPY” (priority 2013, published 2015)

Assays:
A549 lung cancer cells = assay: SRB colorimetric assay, A549 lung cancer cells, 72 hours; format: cell-based, human; details: for IC50 times lower than cisplatin: A549; for IC50: A549, 72 hours, average ± SD of three curves
Protocol: A549 cells were cultured in RPMI media supplemented with 10% Fetal Bovine Serum and 1% nonessential amino acids. Sub-culturing was carried out every 3-4 days and was completed by removing the supernatant media and treating the adherent cells with 1.0 mL of a 0.25% (w/v) Trypsin/0.5 mM EDTA solution. The cells were then treated for approximately 3 minutes in a 37° C. incubator under a 5% CO2 atmosphere. Trypsinization was stopped by the addition of 7.0 mL of cell culture media, the suspended cells were collected by centrifugation, and the resulting cell pellet was re-suspended in fresh cell culture media. The cells were then diluted 1:4 by volume and incubated in a 37° C. incubator with 5% CO2. Cells were grown to 80-90% confluency prior to being used in the SRB colorimetric assays.
To test the effects of compounds 1-18 on the growth of A549 lung cancer cells, SRB cytotoxicity assays were done as described by Skehan et al. Cells were maintained in RPMI media as described above, collected, and diluted so that cells could be seeded in 96-well plates at a density of 4,000 cells/well. The 96-well plate was incubated overnight at 37° C. under a 5% CO2 atmosphere. Subsequently, sterifiltered DMSO stock solutions of the drugs were added to the wells in various concentrations (0-25 μM) and the 96-well plate was incubated at 37° C. under a 5% CO2 for an additional 72 hours. The supernatant cell culture medium was then removed and the cells were fixed for 1 hour with 10% cold trichloroacetic acid (100 μL per well). The trichloroacetic acid was discarded and the plates were washed 5 times with de-ionized water and air dried. After being stained with 0.4% SRB ([…]) and incubated at room temperature for 10 minutes, the cells were washed 5 times with 1% acetic acid and air dried. The bound SRB was dissolved in 10 mM unbuffered Tris, pH 10.5 ([…]) for 10 minutes at room temperature, and the absorbance at 492 nm was measured using a microplate reader. The percent cell growth was then calculated based upon the absorbance values relative to control samples not containing any drug. Each drug concentration was done in triplicate to yield a percent growth vs. drug concentration curve, and these growth curves were subsequently repeated two additional times. The growth curves from the three experiments were then plotted in GraphPad Prism and best-fit curves were used to generate the IC50 values for each curve.

GL-26 glioma cells [1] = assay: SRB growth assay, cisplatin/SBP combination; format: cell-based, murine (C57BL/6); details: 0.8 μM cisplatin alone, 48 hours
Protocol: The murine (C57BL/6) glioma cell line, GL-26, which is highly tumorigenic in C57BL/6 mice, were used for these in-vitro experiments. GL-26 cells were cultured in DMEM/F12 supplemented with 10% FCS, 1% penicillin/streptomycin, 1% L-glutamine and 1% non-essential amino acids.
Sulforhodamine B (SRB) cytotoxicity assays were utilized to assess antitumor activity. GL-26 cells were plated in 96 well plates at a density of 4,000 cells/well (in a total volume of 100 µL) and incubated for 24 hours in a humidified atmosphere of 5% CO2 at 37° C. GL-26 cells were then exposed to Cisplatin at 0-25 μM with either 0.1 or 0.4 μM SBP for 48 hours. The supernatant was then discarded and the GL-26 cells were fixed with 10% cold trichloroacetic acid for 1 hour (100 μL/well). The cells were washed 5 times with de-ionized water, air dried, and stained with 0.4% SRB for 10 min (50 μL/well). GL-26 cells were then washed 5 times in 1% acetic acid and allowed to air dry. The bound SRB was dissolved in a 10 mM unbuffered Tris base (pH 10.5; 100 μL per well) and quantified by the absorbance at 492 nm using the SpectraMax plate reader (Molecular Devices). The fraction of cell growth was determined based upon the absorbance values in comparison to the control wells (0 μM SBP in 0.5% DMSO). All cell growth assays were done in a minimum of triplicates.

GL-26 glioma cells [2] = assay: SRB growth assay, GL-26 glioma cells, 48 hr drug incubation; format: cell-based, murine (C57BL/6); details: Mus musculus, read-out: GL-26 cell growth inhibition
Protocol: The murine (C57BL/6) glioma cell line, GL-26, which is highly tumorigenic in the C57BL/6 mice. GL-26 cells were cultured in DMEM/F12 supplemented with 10% FCS, 1% penicillin/streptomycin, 1% L-glutamine and 1% non-essential amino acids. Human foreskin fibroblasts (HFFs) were cultured in DMEM/F12 supplemented with 10% FCS and 1% penicillin/streptomycin. Primary murine astrocytes were purified from C57BL/6 neonate brains and cultured in DMEM/F12 supplemented with 10% FCS, 1% non-essential amino acids, 1% Lglutamine, 50 IU/ml penicillin, […] and 10 mM Hepes buffer.
The sulforhodamine B (SRB) cytotoxicity assays were adapted from Skehan et al. (22). Briefly, either HFF, primary astrocytes or GL-26 cells were plated in 96-well plates at a density of 4,000 cells/well in a volume of 100 µL overnight at 37° C. and 5% CO2. DMSO stock solutions of SBP, MSBP or TMZ were used at a concentration range of 0.1-25 μM for 48 hr before the supernatant was discarded and the cells were fixed for 1 hr with 10% cold trichloroacetic acid (100 μL, per well). Cells used in recovery assay received fresh media for 48 hrs following the 48 hr drug incubation. The plate was then washed 5 times with de-ionized water, air dried, and stained with 0.4% SRB for 10 min (50 μL, per well). After washing 5 times in 1% acetic acid and air-drying, bound SRB was dissolved in 10 mM unbuffered Tris base (pH 10.5; 100 μL, per well). Bound SRB was then read by absorbance at 492 nm on a SpectraMax plate reader (Molecular Devices). The percent survival was then calculated based upon the absorbance values relative to control wells (0 μM SBP in 0.1% DMSO).

[3] = GSH buffer solution; cited from earlier work
[4] = Glutathione stability experiments (UV-visible spectra); format: physicochemical; details: 5.0×10^−5 M complex, one mole equivalent GSH, phosphate buffer pH 7.4, 15 hours
Protocol: 5.0×10^−3 M stock solutions of compounds 10-18 were prepared in acetonitrile or DMSO, and subsequently diluted in phosphate buffer (0.10M, pH 7.4) to yield a final gold complex concentration of 5.0×10^−5 M. A stock solution of reduced glutathione in phosphate buffer (0.10M, pH 7.4) was used to add one mole equivalent of GSH to the final gold complex solution, and UV-visible spectra of compounds 10-18 were subsequently collected every hour over a 15 hour period.

Row | Molecule | IC50 (A549 lung cancer cells) | IC50 (A549 lung cancer cells; Homo sapiens) | further results
1 | CCC(C)c1ccc2ccc3c(C)cc(C(C)CC)nc3c2n1 (centres unmarked) [Compound 4, 2,9-di-sec-butyl-4-methyl-1,10-phenanthroline] |  | 700 ± 110 nM | 
2 | N.N.[Cl][Pt][Cl] [cisplatin, [Pt(NH3)2Cl2], reference compound] | 4670 ± 210 nM |  | cell growth compared to untreated tumor cells (GL-26 glioma cells [1]): approximately 78%
3 | CCC(C)c1ccc2ccc3cccnc3c2n1 (centres unmarked) [Compound 5, 2-sec-butyl-1,10-phenanthroline] |  | 620 ± 160 nM | inhibition at 6 µM (GL-26 glioma cells [2]; GL26, 6 μM): 0.6 ± 1.2%; inhibition at 25 µM (GL-26 glioma cells [2]; GL26, 25 μM): 24.7 ± 5%
4 | Cc1c(C)c2cccnc2c2ncccc12.[Cl][Au+][Cl] [[(^5,6-di-methylphen)AuCl2]^+, reference compound] |  |  | stability in the presence of GSH (previous studies) [3]: underwent immediate reduction to gold(0) in the presence of GSH
5 | Cc1ccc2ccc3ccc(C)nc3c2n1 [Compound 3, 2,9-di-methyl-1,10-phenanthroline] |  | 1350 ± 90 nM | 
6 | CCCCc1ccc2ccc3ccc(CCCC)nc3c2n1 [Compound 2, 2,9-di-n-butyl-1,10-phenanthroline] |  | 1080 ± 280 nM | 
7 | c1ccc(-c2ccc3ccc4ccc(-c5ccccc5)nc4c3n2)cc1 [Compound 7, 2,9-di-phenyl-1,10-phenanthroline] |  | 1870 ± 210 nM | 
8 | Cc1cc(-c2ccccc2)nc2c1ccc1ccc(-c3ccccc3)nc12 [Compound 8, 2,9-di-phenyl-4-methtyl-1,10-phenanthroline] | 1350 ± 110 nM |  | 
9 | (2-mono-sec-butyl-2,2′-bipyridine)AuCl3 [Compound 18] |  |  | Cell Growth @ 12 μM (A549 lung cancer cells; A549, 12 μM): 100% Cell Growth @ 12 μM; reduction of A549 tumor cell growth (A549 lung cancer cells; concentrations used for compounds 1-8 and 10-17): did not reduce tumor cell growth at any of the concentrations
10 | CCCCc1ccc2ccc3cccnc3c2n1 [Compound 6, 2-mono-n-butyl-phenanthroline] |  | 2920 ± 470 nM | 

Further lines, with some results ahead:

Row | IC50 (A549 lung cancer cells) | IC50 (A549 lung cancer cells; Homo sapiens) | Molecule | further results
11 | 340 ± 60 nM |  | CCCCc1ccc2ccc3ccc(CCCC)nc3c2n1.[Cl][Au]([Cl])[Cl] [Compound 11, (2,9-di-n-butyl-1,10-phenanthroline)AuCl3] | IC50 times lower than cisplatin (A549 lung cancer cells): approximately 12 times; times more active than the free ligand (A549 lung cancer cells; A549 IC50 ratio): approximately 3 times
12 | 770 ± 70 nM |  | CCC(C)c1ccc2ccc3cccnc3c2n1.[Cl][Au]([Cl])[Cl] (centres unmarked) [Compound 14, (2-sec-butyl-1,10-phenanthroline)AuCl3] | 
13 | 1470 ± 210 nM |  | Cc1ccc2ccc3ccc(C)nc3c2n1.[Cl][Au]([Cl])[Cl] [Compound 12, (2,9-di-methyl-1,10-phenanthroline)AuCl3] | 
14 | 1370 ± 110 nM |  | Cc1cc(-c2ccccc2)nc2c1ccc1ccc(-c3ccccc3)nc12.[Cl][Au]([Cl])[Cl] [Compound 17, (2,9-di-phenyl-4-methtyl-1,10-phenanthroline)AuCl3] | 
15 | 1650 ± 130 nM |  | [Cl][Au]([Cl])[Cl].c1ccc(-c2ccc3ccc4ccc(-c5ccccc5)nc4c3n2)cc1 [Compound 16, (2,9-di-phenyl-1,10-phenanthroline)AuCl3] | 
16 | 580 ± 150 nM |  | CCC(C)c1ccc2ccc3ccc(C(C)CC)nc3c2n1.[Cl][Au]([Cl])[Cl] (centres unmarked) [Compound 10, (2,9-di-sec-butyl-1,10-phenanthroline)AuCl3] | stability in the presence of GSH (previous studies) [3]: quite stable in the presence of a GSH buffer solution
17 | 4020 ± 320 nM |  | CCC(C)c1ccc2ccc3c(C)cc(C(C)CC)nc3c2n1.[Cl][Au]([Cl])[Cl] (centres unmarked) [Compound 13, (2,9-di-sec-butyl-4-methyl-1,10-phenanthroline)AuCl3] | times less active than the corresponding free ligand (A549 lung cancer cells; A549 IC50 ratio): approximately 6 times
18 | 370 ± 90 nM |  | CCCCc1ccc2ccc3cccnc3c2n1.[Cl][Au]([Cl])[Cl] [Compound 15, (2-mono-n-butyl-phenanthroline)AuCl3] | redox stability in the presence of GSH [4]: no reduction to gold(I) or gold(0) occurred; IC50 times lower than cisplatin (A549 lung cancer cells): approximately 12 times; times more active than the free ligand (A549 lung cancer cells; A549 IC50 ratio): ~8 times
